Laboratory results published in BindingDB's records for doi:10.1016/s0960-894x(98)00197-8 (Pharmacia & Upjohn, 1999).

Target: Human immunodeficiency virus type 1 protease (Human immunodeficiency virus 1, UniProt Q72874)
Assay: Compound was evaluated for in vitro inhibition of human immunodeficiency virus type 1 (HIV-1) Protease

Compound	Ki [pM]
CCCC1(CCc2ccccc2)CC(=O)C(C(CC)c2cccc(NS(=O)(=O)c3ccc(C#N)cn3)c2)C(=O)O1 (configuration not stated) [5-cyano-N-(3-{1-[4-hydroxy-2-oxo-6-(2-phenylethyl)-6-propyl-5,6-dihydro-2H-pyran-3-yl]propyl}phenyl)pyridine-2-sulfonamide]	100
CCC(c1cccc(NS(=O)(=O)c2ccc(C#N)cn2)c1)C1C(=O)CC(CC)(c2cccc(NS(=O)(=O)c3ccc(C#N)cn3)c2)OC1=O (configuration not stated) [2N-[3-(1-{2-[3-(5-cyano-2-pyridylsulfonamido)phenyl]-2-ethyl-4-hydroxy-6-oxo-3,6-dihydro-2H-5-pyranyl}propyl)phenyl]-5-cyano-2-pyridinesulfonamide]	100
